According to ChEMBL document CHEMBL1149998, “Tannins as selective inhibitors of protein kinase C” (Bioorg Med Chem Lett, 1992):

Legend:
[1] = molecular target: Protein kinase C, PKC; classical/novel (Homo sapiens) (UniProt O94806+P17252+P05129+Q05655+P05771+Q02156+P24723+Q15139+Q04759); experiment: Displacement of phorbol [3H]PDBu from protein kinase C; A - Did displace phorbol (PDBu) at 50 uM or less; type: protein assay
[2] = Inhibitory activity against c-AMP kinase; Did not inhibit c-AMP kinase
Protein kinase C (PKC) = experiment: Inhibitory activity against protein kinase C (PKC); type: protein assay, Homo sapiens

| SMILES | Phorbol displacement [1] | IC50 [2] | IC50 (Protein kinase C (PKC)) |
| --- | --- | --- | --- |
| CC1(C)CC[C@]2(C(=O)O[C@@H]3O[C@H](CO)[C@@H](O)[C@H](O)[C@H]3O)CC[C@]3(C)C(=CC[C@@H]4[C@@]5(C)C[C@@H](O)[C@@H]6OC(=O)c7cc(O)c(O)c(O)c7-c7c(cc(O)c(O)c7O)C(=O)OC[C@@]6(CO)C5CC[C@]43C)C2C1 (stereo not given in full) | < 50 µM | Not Active | 18 µM |
| CC1(C)CC[C@]2(C(=O)O)CC[C@]3(C)C(=CCC4[C@@]5(C)C[C@@H](O)[C@@H]6OC(=O)c7cc(O)c(O)c(O)c7-c7c(cc(O)c(O)c7O)C(=O)OC[C@@]6(CO)C5CC[C@]43C)C2C1 (stereo not given in full) | < 50 µM | Not Active | 23 µM |
| O=C(OC[C@H]1O[C@H](OC(=O)c2cc(O)c(O)c(O)c2)[C@H](O)[C@@H](O)[C@@H]1OC(=O)c1cc(O)c(O)c(O)c1)c1cc(O)c(O)c(O)c1 |  |  | > 100 µM |
| Oc1cc(O)c2c(c1)O[C@H](c1ccc(O)c(O)c1)[C@H](O)[C@H]2c1c(O)cc(O)c2c1O[C@@]1(c3ccc(O)c(O)c3)Oc3cc(O)c4c(c3C2[C@H]1O)O[C@H](c1ccc(O)c(O)c1)[C@H](O)C4c1c(O)cc(O)c2c1O[C@H](c1ccc(O)c(O)c1)[C@H](O)C2 (stereo not given in full) | < 50 µM | Not Active | 15 µM |
| O=C1OCC2OC(=O)c3cc(O)c(O)c(O)c3-c3c(O)c(O)c(O)c4c3C(=O)OC(C2OC(=O)c2cc(O)c(O)c(O)c2-c2c1cc(O)c(O)c2O)C1OC(=O)c2c-4c(O)c(O)c(O)c2[C@H]1O (stereo not given in full) | < 50 µM | Not Active | 8 µM |
| O=C(O[C@H]1[C@H](O)C[C@](O)(C(=O)O)C[C@H]1O)c1cc(O)c(O)c(O)c1 |  |  | > 100 µM |
| O=C(O)C[C@@H]1C(=O)O[C@H]2[C@@H]3OC(=O)c4cc(O)c(O)c(O)c4-c4c(cc(O)c(O)c4O)C(=O)OC[C@H]2O[C@@H](OC(=O)c2cc(O)c(O)c(O)c2)[C@@H]3OC(=O)c2cc(O)c(O)c3c2[C@H]1[C@H](O)C(=O)O3 [CHEBULAGIC ACID] |  |  | 30 µM |
| C=C1O[C@H]2[C@@H]3OC(=O)c4cc(O)c(O)c(O)c4-c4c(cc(O)c(O)c4O)C(=O)OC[C@H]2O[C@@H](OC(=O)c2cc(O)c(O)c(O)c2)[C@@H]3OC(=O)c2cc(O)c(O)c3c2C2C(O)(O3)C3(O)OC4(C(=O)OC5C(O)COC54O)C12CC3=O (stereo not given in full) | < 50 µM | Not Active | 17 µM |
| Oc1cc(O)c2c(c1)O[C@H](c1ccc(O)c(O)c1)[C@H](O)[C@H]2c1c(O)cc(O)c2c1O[C@H](c1ccc(O)c(O)c1)[C@H](O)[C@H]2c1c(O)cc(O)c2c1O[C@H](c1ccc(O)c(O)c1)[C@H](O)C2 [PROCYANIDIN C1] | < 50 µM | Not Active | 40 µM |
| O=C1O[C@H]2[C@@H]3OC(=O)c4cc(O)c(O)c(O)c4-c4c(cc(O)c(O)c4O)C(=O)OC[C@H]2O[C@H](OC(=O)c2cc(O)c(O)c(O)c2)[C@@H]3OC(=O)c2cc(O)c(O)c3c2C2C1=CC(=O)C(O)(O)C2(O)O3 (stereo not given in full) |  | Not Active | 11 µM |
| CC1O[C@H](O)C2OC(=O)c3cc(O)c(O)c(O)c3-c3c(cc(O)c(O)c3O)C(=O)OC2C1O (stereo not given in full) |  |  | > 100 µM |
| O=C(O)C1=C[C@@H](O)[C@@H](O)[C@H](OC(=O)c2cc(O)c(O)c(O)c2)C1 |  |  | > 100 µM |
| O=C(OC[C@H]1O[C@@H](OC(=O)c2cc(O)c(O)c(O)c2)[C@H](O)[C@@H](O)[C@@H]1O)c1cc(O)c(O)c(O)c1 |  |  | > 100 µM |
| O=C(OC[C@H]1O[C@H](OC(=O)c2cc(O)c(O)c(O)c2)[C@H](OC(=O)c2cc(O)c(O)c(O)c2)[C@@H](OC(=O)c2cc(O)c(O)c(O)c2)[C@@H]1O)c1cc(O)c(O)c(O)c1 | < 50 µM | Not Active | 20 µM |
| O=C(O)C1=C[C@@H](O)[C@@H](O)[C@H](OC(=O)c2cc(O)c(O)c(OC(=O)c3cc(O)c(O)c(O)c3)c2)C1 |  |  | > 100 µM |
| Oc1cc(O)c2c(c1)O[C@H](c1ccc(O)c(O)c1)C(O)[C@H]2c1c(O)cc(O)c2c1O[C@H](c1ccc(O)c(O)c1)C(O)C2 (stereo not given in full) |  |  | > 100 µM |

| SMILES | Phorbol displacement [1] | IC50 [2] | IC50 (Protein kinase C (PKC)) |
| --- | --- | --- | --- |
| O=C(O[C@@H]1O[C@@H]2COC(=O)c3cc(O)c(O)c(O)c3-c3c(cc(O)c(O)c3O)C(=O)O[C@H]([C@H]1O)[C@@H]2O)c1cc(O)c(O)c(O)c1 [CORILAGIN] |  |  | 20 µM |
| O=C1OCC2OC(=O)c3cc(O)c(O)c(O)c3-c3c(O)c(O)c(O)c4c3C(=O)OC(C2OC(=O)c2cc(O)c(O)c(O)c2-c2c1cc(O)c(O)c2O)C1OC(=O)c2c-4c(O)c(O)c(O)c2[C@@H]1[C@@]1(O)O[C@@H](CO)[C@@H](O)[C@H]1O (stereo not given in full) | < 50 µM | Not Active | 12 µM |
| Oc1cc(O)c2c(c1)O[C@H](c1ccc(O)c(O)c1)C(O)C2 (stereo not given in full) |  |  | > 100 µM |
| O=C(O[C@@H]1C[C@](O)(C(=O)O)C[C@@H](OC(=O)c2cc(O)c(O)c(O)c2)[C@H]1OC(=O)c1cc(O)c(O)c(O)c1)c1cc(O)c(O)c(O)c1 |  |  | > 100 µM |
| O=C(O)C[C@@H]1C(=O)O[C@H]2[C@H](OC(=O)c3cc(O)c(O)c(O)c3)[C@@H](OC(=O)c3cc(O)c(O)c4c3[C@H]1[C@H](O)C(=O)O4)[C@@H](OC(=O)c1cc(O)c(O)c(O)c1)O[C@@H]2COC(=O)c1cc(O)c(O)c(O)c1 |  |  | 30 µM |
| O=C(O[C@H]1[C@H](O)C[C@](OC(=O)c2cc(O)c(O)c(O)c2)(C(=O)O)C[C@H]1O)c1cc(O)c(O)c(O)c1 |  | Not Active | > 100 µM |
| O=C(O)C1=C[C@@H](OC(=O)c2cc(O)c(O)c(O)c2)[C@@H](O)[C@H](OC(=O)c2cc(O)c(O)c(O)c2)C1 |  |  | > 100 µM |
| O=C(OC[C@H]1O[C@@H](OC(=O)c2cc(O)c(O)c(O)c2)[C@H](OC(=O)c2cc(O)c(O)c(O)c2)[C@@H](OC(=O)c2cc(O)c(O)c(O)c2)[C@@H]1OC(=O)c1cc(O)c(O)c(O)c1)c1cc(O)c(O)c(O)c1 [PENTAGALLOYL GLUCOSE] | < 50 µM |  | 4 µM |
| O=C1O[C@H]2[C@H](O)[C@@H](OC(=O)c3cc(O)c(O)c4c3C3C1=CC(=O)C(O)(O)C3(O)O4)[C@@H](OC(=O)c1cc(O)c(O)c(O)c1)O[C@@H]2CO (stereo not given in full) |  |  | 86 µM |
| O=C(OC[C@H]1OC(O)[C@@](O)(COC(=O)c2cc(O)c(O)c(O)c2)[C@@H]1O)c1cc(O)c(O)c(O)c1 (stereo not given in full) [HAMAMELITANNIN] |  |  | > 100 µM |
| O=C(OC[C@H]1O[C@H](O)[C@@](O)(COC(=O)c2cc(O)c(O)c(O)c2)[C@@H]1OC(=O)c1cc(O)c(O)c(O)c1)c1cc(O)c(O)c(O)c1 |  |  | > 100 µM |
| Oc1cc(O)c2c(c1)O[C@@]1(c3ccc(O)c(O)c3)Oc3cc(O)c4c(c3C2[C@H]1O)O[C@H](c1ccc(O)c(O)c1)[C@H](O)C4 |  |  | > 100 µM |
| O=C(OC[C@H]1O[C@@H](OC(=O)c2cc(O)c(O)c(O)c2)[C@H](OC(=O)c2cc(O)c(O)c(O)c2)[C@@H](O)[C@@H]1O)c1cc(O)c(O)c(O)c1 |  |  | > 100 µM |
| O=C(O[C@@H]1O[C@H](CO)[C@@H](O)[C@H](O)[C@H]1O)c1cc(O)c(O)c(O)c1 |  |  | > 100 µM |
| O=C1OC2COC(=O)c3cc(O)c(O)c(O)c3-c3c(O)c(O)c4oc(=O)c5c(c(O)c(O)c6oc(=O)c3c4c65)-c3c(cc(O)c(O)c3O)C(=O)OC2C2OC(=O)c3c(c(O)c(O)c(O)c3-c3c(O)c(O)c(O)c4c3C(=O)OC2[C@@H]4O)-c2c1cc(O)c(O)c2O (stereo not given in full) |  |  | 4 µM |
